Results as given in paper PMC9186362, “Design and biological evaluation of substituted 5,7-dihydro-6H-indolo[2,3-c]quinolin-6-one as novel selective Haspin inhibitors” (Journal of Enzyme Inhibition and Medicinal Chemistry, 2022).

Assays:
[1] = molecular target: RnDYRK1A (Rattus norvegicus, UniProt Q63470); test: ADP-Glo kinase assay; assay type: biochemical, Rattus norvegicus (Rn); details: for remaining activity: mean n = 2, % of maximum activity of DMSO control, read-out: % Residual activity at 1 μM DYRK1A; for Selectivity index DYRK/Haspin: IC50 DYRK1A/IC50 Haspin; for IC50: dose-response curve, each point in duplicate, read-out: Kinase inhibition (IC50) DYRK1A
Method: (§1) Kinase activities were determined using the ADP-Glo methodology (ADP-Glo Kinase Assay; Promega) according to the assay described by Nguyen et al.[32] except for MmCLK1. The later was assayed in the following buffer: 10 mM MgCl2, 1 mM EGTA, 1 mM DTT, 25 mM Tris-HCl pH 7.5, 50 µg/ml heparin, 0.15 mg/ml BSA, with 0.027 µg/µl of the following peptide: GRSRSRSRSRSR as substrate.

[2] = molecular target: HsCdk2/Cyc A (Homo sapiens, UniProt P24941); test: ADP-Glo kinase assay; assay type: biochemical, Homo sapiens (Hs); details: mean n = 2, % of maximum activity of DMSO control, read-out: % Residual activity at 1 μM CDK2
Method: as §1

[3] = molecular target: HsPIM1 (Homo sapiens, UniProt P11309); test: ADP-Glo kinase assay; assay type: biochemical, Homo sapiens (Hs); details: mean n = 2, % of maximum activity of DMSO control, read-out: % Residual activity at 1 μM PIM1
Method: as §1

[4] = molecular target: HsCdk5/p25 (Homo sapiens, UniProt Q00535); test: ADP-Glo kinase assay; assay type: biochemical, Homo sapiens (Hs); details: mean n = 2, % of maximum activity of DMSO control, read-out: % Residual activity at 1 μM CDK5
Method: as §1

[5] = molecular target: HsCdk9/Cyc E (Homo sapiens, UniProt P50750); test: ADP-Glo kinase assay; assay type: biochemical, Homo sapiens (Hs); details: mean n = 2, % of maximum activity of DMSO control, read-out: % Residual activity at 1 μM CDK9
Method: as §1

[6] = molecular target: HsGSK3β (Homo sapiens, UniProt P49841); test: ADP-Glo kinase assay; assay type: biochemical, Homo sapiens (Hs); details: mean n = 2, % of maximum activity of DMSO control, read-out: % Residual activity at 1 μM GSK3β
Method: as §1

[7] = molecular target: T1, HsHaspin (Homo sapiens, UniProt Q8TF76); test: ADP-Glo kinase assay; assay type: biochemical, Homo sapiens (Hs); details: for remaining activity at 1 µM: mean n = 2, % of maximum activity of DMSO control, read-out: % Residual activity at 1 μM Haspin; for IC50: dose-response curve, each point in duplicate, read-out: Kinase inhibition (IC50) Haspin
T1 sequence (Q8TF76 1-798): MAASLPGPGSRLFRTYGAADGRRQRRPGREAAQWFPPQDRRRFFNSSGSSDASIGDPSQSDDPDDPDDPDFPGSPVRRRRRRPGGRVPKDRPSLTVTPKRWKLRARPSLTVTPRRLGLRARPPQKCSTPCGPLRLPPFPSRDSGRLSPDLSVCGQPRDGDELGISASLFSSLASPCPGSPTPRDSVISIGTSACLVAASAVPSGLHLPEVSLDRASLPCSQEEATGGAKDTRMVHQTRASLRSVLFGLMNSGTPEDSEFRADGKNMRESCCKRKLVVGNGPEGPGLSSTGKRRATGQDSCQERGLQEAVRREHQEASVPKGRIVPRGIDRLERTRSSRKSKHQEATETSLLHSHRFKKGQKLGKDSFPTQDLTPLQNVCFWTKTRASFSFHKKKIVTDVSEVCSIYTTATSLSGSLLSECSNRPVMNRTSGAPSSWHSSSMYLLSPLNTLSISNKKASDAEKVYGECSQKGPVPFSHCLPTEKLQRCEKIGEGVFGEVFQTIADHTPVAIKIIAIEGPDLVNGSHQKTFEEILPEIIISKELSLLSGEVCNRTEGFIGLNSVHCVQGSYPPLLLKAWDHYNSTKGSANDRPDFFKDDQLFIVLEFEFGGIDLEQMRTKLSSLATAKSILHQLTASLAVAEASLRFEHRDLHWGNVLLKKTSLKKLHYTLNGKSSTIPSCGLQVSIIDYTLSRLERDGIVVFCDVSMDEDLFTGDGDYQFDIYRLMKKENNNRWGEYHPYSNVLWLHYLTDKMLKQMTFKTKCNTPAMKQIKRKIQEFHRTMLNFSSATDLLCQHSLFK
Method: as §1

[8] = molecular target: MmCLK1 (Mus musculus, UniProt P22518); test: ADP-Glo kinase assay; assay type: biochemical, Mus musculus (Mm); details: for remaining activity at 1 µM: mean n = 2, % of maximum activity of DMSO control, read-out: % Residual activity at 1 μM CLK1; for Selectivity index CLK1/Haspin: IC50 CLK1/IC50 Haspin; for IC50: dose-response curve, each point in duplicate, read-out: Kinase inhibition (IC50) CLK1
Method: as §1

Sequence of HsPIM1 (P11309 whole entry): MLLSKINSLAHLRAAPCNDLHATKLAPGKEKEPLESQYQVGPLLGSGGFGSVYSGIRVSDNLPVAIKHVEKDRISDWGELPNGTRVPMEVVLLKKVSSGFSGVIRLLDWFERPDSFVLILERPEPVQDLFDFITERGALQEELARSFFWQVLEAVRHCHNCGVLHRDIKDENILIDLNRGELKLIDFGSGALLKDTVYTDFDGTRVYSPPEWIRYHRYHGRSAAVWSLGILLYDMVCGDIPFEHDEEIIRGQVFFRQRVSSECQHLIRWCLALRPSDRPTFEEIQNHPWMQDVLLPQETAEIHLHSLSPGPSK
Sequence of HsGSK3β (P49841 whole entry): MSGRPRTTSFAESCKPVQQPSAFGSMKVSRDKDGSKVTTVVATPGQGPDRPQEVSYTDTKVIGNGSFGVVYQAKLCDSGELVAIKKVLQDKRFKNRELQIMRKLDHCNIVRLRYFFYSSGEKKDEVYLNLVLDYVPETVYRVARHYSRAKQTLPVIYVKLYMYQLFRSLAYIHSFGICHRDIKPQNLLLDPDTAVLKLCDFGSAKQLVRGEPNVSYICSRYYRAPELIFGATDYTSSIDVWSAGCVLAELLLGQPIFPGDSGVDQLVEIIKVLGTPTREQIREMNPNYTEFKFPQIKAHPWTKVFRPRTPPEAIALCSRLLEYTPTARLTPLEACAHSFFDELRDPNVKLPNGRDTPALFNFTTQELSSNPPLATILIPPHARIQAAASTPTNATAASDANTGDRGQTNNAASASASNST
Sequence of HsCdk5/p25 (Q00535 whole entry): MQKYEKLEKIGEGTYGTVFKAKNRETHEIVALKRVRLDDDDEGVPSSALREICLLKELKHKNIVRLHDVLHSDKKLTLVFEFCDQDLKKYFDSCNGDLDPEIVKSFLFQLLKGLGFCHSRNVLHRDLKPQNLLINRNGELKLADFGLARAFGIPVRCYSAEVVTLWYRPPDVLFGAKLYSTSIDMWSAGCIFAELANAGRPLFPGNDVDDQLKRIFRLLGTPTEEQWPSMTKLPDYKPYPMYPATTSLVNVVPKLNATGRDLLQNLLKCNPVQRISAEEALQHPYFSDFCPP
Sequence of HsCdk5/p25 (Q15078 99-307 partner limits assumed): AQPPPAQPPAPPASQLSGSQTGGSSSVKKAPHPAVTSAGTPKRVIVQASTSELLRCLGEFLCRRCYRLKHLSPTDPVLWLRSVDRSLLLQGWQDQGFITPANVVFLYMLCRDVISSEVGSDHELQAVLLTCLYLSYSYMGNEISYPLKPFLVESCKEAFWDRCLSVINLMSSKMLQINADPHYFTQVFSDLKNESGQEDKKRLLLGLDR
Sequence of MmCLK1 (P22518 whole entry): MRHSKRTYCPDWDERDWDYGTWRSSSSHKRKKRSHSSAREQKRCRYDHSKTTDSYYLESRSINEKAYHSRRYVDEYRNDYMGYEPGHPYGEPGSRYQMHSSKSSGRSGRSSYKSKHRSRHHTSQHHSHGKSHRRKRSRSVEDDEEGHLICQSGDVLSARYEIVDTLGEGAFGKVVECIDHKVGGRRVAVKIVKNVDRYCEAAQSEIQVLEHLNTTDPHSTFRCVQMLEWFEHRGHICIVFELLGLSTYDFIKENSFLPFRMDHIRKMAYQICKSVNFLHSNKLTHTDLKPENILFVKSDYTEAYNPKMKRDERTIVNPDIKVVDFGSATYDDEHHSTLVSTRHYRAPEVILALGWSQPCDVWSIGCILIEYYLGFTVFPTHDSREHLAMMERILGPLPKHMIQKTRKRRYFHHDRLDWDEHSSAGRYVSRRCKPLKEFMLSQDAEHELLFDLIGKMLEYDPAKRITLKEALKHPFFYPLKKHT
Sequence of HsCdk9/Cyc E (P50750 whole entry): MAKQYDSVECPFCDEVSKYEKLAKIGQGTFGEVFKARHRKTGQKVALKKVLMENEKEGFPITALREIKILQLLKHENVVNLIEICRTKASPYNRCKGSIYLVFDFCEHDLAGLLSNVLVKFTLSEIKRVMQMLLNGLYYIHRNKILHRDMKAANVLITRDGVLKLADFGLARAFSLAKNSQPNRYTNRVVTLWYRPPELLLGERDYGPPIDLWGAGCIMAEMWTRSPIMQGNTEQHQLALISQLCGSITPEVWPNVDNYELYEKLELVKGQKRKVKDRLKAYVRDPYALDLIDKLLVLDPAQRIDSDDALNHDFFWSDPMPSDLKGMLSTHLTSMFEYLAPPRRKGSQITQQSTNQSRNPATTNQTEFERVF
Sequence of HsCdk9/Cyc E (O60563 whole entry partner): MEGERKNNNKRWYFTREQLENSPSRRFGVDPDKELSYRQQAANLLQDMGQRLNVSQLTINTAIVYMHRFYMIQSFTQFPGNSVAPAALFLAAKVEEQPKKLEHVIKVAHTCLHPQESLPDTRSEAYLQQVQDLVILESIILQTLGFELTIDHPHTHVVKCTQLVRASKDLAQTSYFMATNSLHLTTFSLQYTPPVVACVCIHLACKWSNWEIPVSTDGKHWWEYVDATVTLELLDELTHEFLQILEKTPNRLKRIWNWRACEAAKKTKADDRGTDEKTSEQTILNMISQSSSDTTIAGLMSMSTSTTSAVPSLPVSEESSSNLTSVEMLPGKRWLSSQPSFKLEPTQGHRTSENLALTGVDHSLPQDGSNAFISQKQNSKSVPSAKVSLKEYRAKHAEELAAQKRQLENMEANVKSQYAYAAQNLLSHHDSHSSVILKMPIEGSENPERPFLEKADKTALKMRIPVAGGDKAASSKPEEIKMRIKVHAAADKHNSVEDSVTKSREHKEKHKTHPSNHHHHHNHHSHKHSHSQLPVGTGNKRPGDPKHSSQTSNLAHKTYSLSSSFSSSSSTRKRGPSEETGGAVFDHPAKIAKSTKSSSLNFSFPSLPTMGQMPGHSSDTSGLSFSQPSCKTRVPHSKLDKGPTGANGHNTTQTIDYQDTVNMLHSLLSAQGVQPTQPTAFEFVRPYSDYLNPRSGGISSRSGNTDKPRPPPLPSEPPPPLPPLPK

Row | SMILES | remaining activity [1] | remaining activity at 1 µM [2] | remaining activity at 1 µM [3] | remaining activity at 1 µM [4] | remaining activity at 1 µM [5] | remaining activity at 1 µM [6] | remaining activity at 1 µM [7] | remaining activity at 1 µM [8] | melting point | Selectivity index DYRK/Haspin [1] | IC50 [1] | IC50 [7] | Selectivity index CLK1/Haspin [8] | IC50 [8]
1 | O=c1[nH]c2ccccc2c2c1[nH]c1ccccc12 [Compound 45, 5,7-Dihydro-6H-indolo[2,3-c]quinolin-6-one] | 61% | 100% | 86% | 100% | 63% | 100% | 44% | 67% | – | – | – | – | – | –
2 | O=c1[nH]c2cc(O)ccc2c2c1[nH]c1ccccc12 [Compound 47, 3-Hydroxy-5,7-dihydro-6H-indolo[2,3-c]quinolin-6-one] | 33% | 61% | 37% | 59% | 20% | 47% | 28% | 22% | 238 to 240 °C (dec.) | – | – | – | – | –
3 | COc1ccc2c(c1)[nH]c1c(=O)[nH]c3ccccc3c12 [Compound 58, 9-Methoxy-5,7-dihydro-6H-indolo[2,3-c]quinolin-6-one] | 55% | 62% | 48% | 55% | 55% | 51% | 59% | 49% | 235 to 237 °C | – | – | – | – | –
4 | COc1ccc2[nH]c(=O)c3[nH]c4ccc(F)cc4c3c2c1 [Compound 60, 10-Fluoro-2-methoxy-5,7-dihydro-6H-indolo[2,3-c]quinolin-6-one] | 44% | 97% | 100% | 100% | 100% | 100% | 9% | 31% | 135 to 136 °C | 8 | 0.143 µM | 0.019 µM | 6 | 0.122 µM
5 | COc1ccc2c(c1)c1c3cc(N(C)C)ccc3[nH]c(=O)c1n2C [Compound 64, 2-(Dimethylamino)-10-methoxy-7-methyl-5,7-dihydro-6H-indolo[2,3-c]quinolin-6-one] | 19% | 100% | 82% | 100% | 59% | 81% | 39% | 11% | 231 to 234 °C | – | – | – | – | –

Next, values leading:

Row | remaining activity [1] | remaining activity at 1 µM [2] | remaining activity at 1 µM [3] | remaining activity at 1 µM [4] | remaining activity at 1 µM [5] | remaining activity at 1 µM [6] | remaining activity at 1 µM [7] | remaining activity at 1 µM [8] | melting point | Selectivity index DYRK/Haspin [1] | IC50 [1] | IC50 [7] | Selectivity index CLK1/Haspin [8] | IC50 [8] | SMILES
6 | 5% | 58% | 29% | 63% | 37% | 22% | 2% | 1% | 205 to 208 °C | 15 | 0.242 µM | 0.016 µM | 5 | 0.078 µM | COc1ccc2[nH]c3c(=O)[nH]c4cc(OC)c(OC)cc4c3c2c1 [Compound 52, 2,3,10-Trimethoxy-5,7-dihydro-6H-indolo[2,3-c]quinolin-6-one]
7 | 36% | 76% | 31% | 56% | 56% | 63% | 33% | 11% | 241 to 244 °C | – | – | – | – | – | COc1ccc2[nH]c3c(=O)[nH]c4ccc(C(F)(F)F)cc4c3c2c1 [Compound 53, 10-Methoxy-2-(trifluoromethyl)-5,7-dihydro-6H-indolo[2,3-c]quinolin-6-one]
8 | 10% | 100% | 37% | 100% | 72% | 58% | 3% | 2% | 242 to 245 °C | 8 | 0.28 µM | 0.034 µM | 8 | 0.259 µM | COc1ccc2[nH]c3c(=O)[nH]c4ccc(NC(C)=O)cc4c3c2c1 [Compound 57, N-(10-Methoxy-6-oxo-6,7-dihydro-5H-indolo[2,3-c]quinolin-2-yl)acetamide]
9 | 21% | 74% | 34% | 51% | 41% | 41% | 13% | 12% | 235 to 237 °C | 2 | 0.073 µM | 0.03 µM | 3 | 0.094 µM | COc1ccc2c(c1)[nH]c1c(=O)[nH]c3ccc(OC)cc3c12 [Compound 59, 2,9-Dimethoxy-5,7-dihydro-6H-indolo[2,3-c]quinolin-6-one]
10 | 2% | 31% | 75% | 22% | 6% | 31% | 0% | 0% | > 250 °C | 7 | 0.131 µM | 0.018 µM | 7 | 0.124 µM | COc1ccc2c(c1)c1c3cc(O)ccc3[nH]c(=O)c1n2C [Compound 62, 2-Hydroxy-10-methoxy-7-methyl-5,7-dihydro-6H-indolo[2,3-c]quinolin-6-one]
11 | 29% | 67% | 42% | 68% | 45% | 44% | 51% | 19% | – | – | – | – | – | – | COc1ccc2c(c1)c1c3cc(C(F)(F)F)ccc3[nH]c(=O)c1n2C [Compound 63, 10-Methoxy-7-methyl-2-(trifluoromethyl)-5,7-dihydro-6H-Indolo[2,3-c]quinolin-6-one]
